Assay results from patent US4892882A, “Carbamoyloxy-isoxazole derivatives, their preparation and insecticidal compositions containing them” (priority 1980, dated 1990).
Like-named read-outs stand apart in the source and are kept apart here.

Columns and labels:
[1] = system: green rice leafhopper (Naphotettix cincticeps); assay: Activity against the green rice leafhopper, dust on rice seedlings; format: in vivo; settings: Nephotettix cincticeps, topical, 10 mg per pot, resistant strain, final instar larvae, 72 hours, 25° C., read-out: Percentage mortality, Green rice leafhopper
Procedure: (§1) A dust was prepared by homogeneously mixing and pulverizing twice with a pulverizer 2 parts by weight of each in turn of the test compounds indicated in Table 4 and 98 parts by weight of clay. The dusts were then sprayed onto rice seedlings planted in plastic pots and covered with a plastic cylinder in amounts sufficient to provide 10 mg of the […] dust per pot (corresponding to 1.4 kg of dust per 10 ares). 10-15 of the final instar larvae of the green rice leafhopper (Naphotettix cincticeps) or of the brown planthopper (Nilaparvata lugens) of strains known to be resistant both to conventional organic phosphorus and carbamate insecticides were released into each pot. After maintaining the pots at 25° C. for 72 hours, the percentage mortality of the larvae was assessed. Each test was carried out twice and the results averaged.

[2] = system: green peach aphid (Myzus persicae); assay: Control of green peach aphid, systemic activity; format: in vivo; settings: 72 hours, 25° C., read-out: Percentage mortality of green peach aphid, Systemic
Procedure: (§2) A wettable powder was prepared by homogeneously mixing and pulverizing three times in a hammer mill 10 parts by weight of one of the test compounds indicated in Tables 2 and 3, 4 parts by weight of sodium dodecylbenzene sulphonate, 2 parts by weight of polyvinyl alcohol and 84 parts by weight of clay. The wettable powder thus prepared was then diluted with water to the concentration indicated in Table 1, and then 0.01% w/v of Gramin (a spreader) was added.
The suspensions were then poured into 30 ml bottles. Leaves of the Chinese mustard "Komatsuna" bearing green peach aphids were then placed in the bottles and the mouths of the bottles were plugged with cotton wool. The bottles were placed in a room maintained at 25° C. for 72 hours, after which the percentage mortality of the aphids was assessed.

[3] = Toxicity test in mice, mortality after 7 days (Litchfield and Wilcoxon); parameters: species or system mice (ddY-SLC); settings: mouse, in vivo
Procedure: Each of the compounds listed in Table 1 was administered in the form of a suspension, to which 0.5% w/v gum tragacanth had been added, to a group of 5 week old ddY-SLC series mice. Each test group consisted of 10 male and 10 female mice. The LD50 value was calculated, by the method of Litchfield and Wilcoxon [J. Pharmac. Exp. Ther. 96, 99 (1949)], from the mortality rate after 7 days.

[4] = system: brown planthopper (Nilaparvata lugens); assay: Activity against the brown planthopper, dust on rice seedlings; format: in vivo; settings: topical, 10 mg per pot, resistant strain, final instar larvae, 72 hours, 25° C., read-out: Percentage mortality, Brown planthopper
Procedure: as §1

[5] = system: green peach aphid (Myzus persicae); assay: Control of green peach aphid, contact activity; format: in vivo; settings: topical, 72 hours, 25° C., read-out: Percentage mortality of green peach aphid, Contact
Procedure: as §2
The resulting diluted solution was then sprayed onto the leaves of a cabbage bearing green peach aphids (Myzus persicae) in an amount of 10 ml per leaf. The leaf stalk of each leaf was then placed in a 30 ml bottle containing water and the mouth of the bottle was plugged with cotton wool. The bottles were then left in a room maintained at 25° C.

[6] = system: green peach aphids of a strain resistant to organic phosphate insecticides; assay: Activity against green peach aphids (mixed formulation); format: in vivo; settings: Myzus persicae, topical, read-out: Percentage mortality
Procedure: Emulsifiable concentrates containing a total of 25% by weight of active ingredient or ingredients were prepared as described in Example 22 and diluted with water to the concentrations given in the following Table 6. Each emulsion contained as active ingredient Compound No. 1, Compound No. 9 or the known insecticide isoxathion alone or contained a mixture of isoxathion and Compound No. 1 or No. 9. The diluted emulsions were sprayed, in an amount of 10 ml per leaf, onto the leaves of the Chinese mustard "Komatsuna" bearing green peach aphids of a strain known to be resistant to organic phosphate insecticides. The leaf stalks of the leaves were placed into 30 ml bottles and the mouths of the bottles were plugged with cotton wool. After maintaining the leaves at 25° C. for 72 hours, the percentage mortality was assessed and the results are shown in Table 6. The expected percentage mortality of the combinations of Compound No. 1 or No. 9 with Isoxation is shown in parentheses in the table.

brown planthopper = assay: Activity against the brown planthopper (mixed formulation); format: in vivo; settings: Nilaparvata lugens, topical; for mortality at 50 mg: read-out: percentage mortality, insecticide alone (Compound 1 0 mg)
Procedure: Soil and water were placed into plastic pots having inside diameters and heights each of about 10 cm to prepare the pots for submerged cultivation,with water to a depth of about 2 cm. Rice seedlings were then planted in the pots and maintained in a greenhouse, until they had grown to a height of about 15 cm.
Dusts were prepared, each containing 0.1% w/w of Compound No. 1 or of the known organic phosphate or carbamate insecticides listed in Table 5, and these were homogeneously applied, in the amounts specified in the Table, to each pot. 10-15 of the final instar larvae of the brown planthopper were then released onto each pot. The pots were then covered and maintained at 25° C. for 72 hours, after which the percentage mortality of the larvae was assessed.
The experiments were conducted using the known organic phosphate and carbamate insecticides either alone or together with Compound No. 1 (50 mg). The percentage mortality achieved using Compound No. 1 alone in an amount of 50 mg was also assessed and found to be 0%. The expected percentage mortality of the combination of Compound No. 1 with the known organic phosphate and carbamate insecticides was calculated by the method of C. I. Bliss [Ann. Appl. Biol. 26, 585 (1939)] and is shown in parentheses in the Table.

[7] = 0.1% dust 50 mg, 72 hours, 25° C.

## Cc1cc(OC(=O)N(C)C)no1 [3-Dimethylcarbamoyloxy-5-methylisoxazole, reference compound]
[1]
  mortality at 10 mg/pot: 9%
[2]
  mortality at 1.56 ppm: 74%
  mortality at 6.25 ppm: 89%
[3]; male/female mice
  LD50 at 168 h: 31.2 mg/kg
[4]
  mortality at 10 mg/pot: 22%
[5]
  mortality at 12.5 ppm: 34%
  mortality at 50 ppm: 84%

## CCSCc1onc(OC(=O)N(C)C)c1Cl [compound 10, 4-Chloro-3-dimethylcarbamoyloxy-5-ethylthiomethylisoxazole]
[2]
  mortality at 6.25 ppm: 100%
[5]
  mortality at 50 ppm: 97%

## CSCc1cc(OC(=O)N(C)C)no1 [Compound No. 1, 3-Dimethylcarbamoyloxy-5-methylthiomethylisoxazole]
[6]; 72 h
  mortality at 5 ppm: 25.8%
  mortality at 10 ppm: 59.8%
[1]
  mortality at 10 mg/pot: 65%
[2]
  mortality at 1.56 ppm: 100%
  mortality at 6.25 ppm: 100%
Brown planthopper; 72 h, read-out: percentage mortality, Compound No. 1 alone
  mortality at 50 mg/pot: 0%
[3]; female mice
  LD50 at 168 h: 109 mg/kg
[3]; male mice
  LD50 at 168 h: 110 mg/kg
[4]
  mortality at 10 mg/pot: 100%
[5]
  mortality at 12.5 ppm: 83%
  mortality at 50 ppm: 100%

## CC(C)SCc1cc(OC(=O)N(C)C)no1 [compound 4, 3-Dimethylcarbamoyloxy-5-isopropylthiomethylisoxazole]
[2]
  mortality at 6.25 ppm: 96%
[5]
  mortality at 50 ppm: 81%

## CN(C)C(=O)Oc1cc(CS(C)(=O)=O)on1 [compound 7, 3-Dimethylcarbamoyloxy-5-methylsulphonylmethylisoxazole]
[2]
  mortality at 6.25 ppm: 85%
[5]
  mortality at 50 ppm: 82%

## CCCSCc1cc(OC(=O)N(C)C)no1 [compound 3, 3-Dimethylcarbamoyloxy-5-propylthiomethylisoxazole]
[1]
  mortality at 10 mg/pot: 68%
[2]
  mortality at 6.25 ppm: 100%
[4]
  mortality at 10 mg/pot: 68%
[5]
  mortality at 50 ppm: 86%

## CNC(=O)Oc1ccccc1C(C)C [MIPC, 2-Isopropylphenyl N-methylcarbamate]
Brown planthopper; [7]
  mortality at 50 mg: 25%

## CN(C)C(=O)Oc1noc(CS(C)(=O)=O)c1Cl [Compound No. 12, 4-Chloro-3-dimethylcarbamoyloxy-5-methylsulphonylmethylisoxazole]
[2]
  mortality at 6.25 ppm: 90%
[5]
  mortality at 50 ppm: 82%

## CN(C)C(=O)Oc1cc(C[S+](C)[O-])on1 (stereo not shown) [Compound No. 5, 3-Dimethylcarbamoyloxy-5-methylsulphinylmethylisoxazole]
[2]
  mortality at 6.25 ppm: 100%
[5]
  mortality at 50 ppm: 86%

## CC[S+]([O-])Cc1cc(OC(=O)N(C)C)no1 (stereo not shown) [compound 6, 3-Dimethylcarbamoyloxy-5-ethylsulphinylmethylisoxazole]
[2]
  mortality at 6.25 ppm: 100%
[5]
  mortality at 50 ppm: 88%

## CNC(=O)Oc1cccc2ccccc12 [NAC, 1-Naphthyl N-methylcarbamate]
Brown planthopper; 72 h
  mortality at 50 mg: 29.2%

## CCSCc1cc(OC(=O)N(C)C)no1 [Compound No. 2, 3-Dimethylcarbamoyloxy-5-ethylthiomethylisoxazole]
[1]
  mortality at 10 mg/pot: 67%
[2]
  mortality at 6.25 ppm: 100%
[3]; female mice
  LD50 at 168 h: 104 mg/kg
[3]; male mice
  LD50 at 168 h: 125 mg/kg
[4]
  mortality at 10 mg/pot: 95%
[5]
  mortality at 50 ppm: 100%

## CSCc1onc(OC(=O)N(C)C)c1Cl [Compound No. 9, 4-Chloro-3-dimethylcarbamoyloxy-5-methylthiomethylisoxazole]
[6]; 72 h
  mortality at 2.5 ppm: 20.1%
  mortality at 5 ppm: 38.4%
[2]
  mortality at 1.56 ppm: 100%
  mortality at 6.25 ppm: 100%
[4]
  mortality at 10 mg/pot: 100%
[5]
  mortality at 12.5 ppm: 90%
  mortality at 50 ppm: 100%

## CCS(=O)(=O)Cc1cc(OC(=O)N(C)C)no1 [compound 8, 3-Dimethylcarbamoyloxy-5-ethylsulphonylmethylisoxazole]
[2]
  mortality at 6.25 ppm: 85%
[5]
  mortality at 50 ppm: 80%

## CSCc1onc(OC(=O)N(C)C)c1I [compound 14, 3-Dimethylcarbamoyloxy-4-iodo-5-methylthiomethylisoxazole]
[2]
  mortality at 6.25 ppm: 100%
[5]
  mortality at 50 ppm: 86%

## CCOP(=S)(OCC)Oc1cc(-c2ccccc2)on1 [Isoxathion, O,O-Diethyl O-(5-phenyl-3-isoxazolyl)phosphorothioate, reference compound]
[6]; Isoxathion 25 ppm, 72 hours, 25° C.
  mortality at 25 ppm: 0%
[6]; Isoxathion 50 ppm, 72 hours, 25° C.
  mortality at 50 ppm: 4.4%

## COCc1cc(OC(=O)N(C)C)no1 [compound 15, 3-Dimethylcarbamoyloxy-5-methoxymethylisoxazole]
[2]
  mortality at 6.25 ppm: 100%
[5]
  mortality at 50 ppm: 84%

## CN(C)C(=O)Oc1noc(C[S+](C)[O-])c1Cl (stereo not shown) [compound 11, 4-Chloro-3-dimethylcarbamoyloxy-5-methylsulphinylmethylisoxazole]
[2]
  mortality at 6.25 ppm: 100%
[5]
  mortality at 50 ppm: 100%

## CNC(=O)Oc1cccc(C)c1 [MTMC, 3-Tolyl N-methylcarbamate]
Brown planthopper; [7]
  mortality at 50 mg: 20.8%

## CSCc1onc(OC(=O)N(C)C)c1Br [compound 13, 4-Bromo-3-dimethylcarbamoyloxy-5-methylthiomethylisoxazole]
[2]
  mortality at 1.56 ppm: 100%
  mortality at 6.25 ppm: 100%
[5]
  mortality at 12.5 ppm: 99%
  mortality at 50 ppm: 100%
